# Laboratory results as given in US6608032B1, “Medicinal compositions” (Takara Shuzo Co., Ltd., priority 1999, dated 2003).
# Legend:
# [1] = system: cyclooxygenase 2 protein; assay: LPS-induced cyclooxygenase 2 protein expression in RAW264.7 cells (Western blot); assay type: cell-based; conditions: 50 μl of 10 mM solution per 5 ml, added 0 or 6 hours before LPS
# Procedure: (1) RAW264.7 cells (ATCC TIB 71) were suspended in Dulbecco's modified Eagle's medium (Bio Whittaker, 12-604F) containing 10% fetal calf serum (Gibco) at a concentration of 3×10^5 cells/ml. 5 ml of the suspension was added to each well of a 6-well microtiter plate and the plate was incubated at 37° C. overnight in the presence of 5% CO2. 50 μl of a solution containing agarobiose or agarohexaose at a concentration of 10 mM in water was added to the well. The plate was incubated for 0 or 6 hours. 50 μl of a solution containing lipopolysaccharide (LPS, Sigma, L-2012) at a concentration of 100 μg/ml in water was added to the well. The plate was incubated for additional 12 hours. The cells were recovered by detaching the cells from the plate using a scraper and suspended in phosphate buffered saline containing 1 μg/ml pepstatin A (Sigma, P5318), 1 μg/ml leupeptin (Sigma, L2884), 1 mM phenylmethylsulfonyl fluoride (Nacalai Tesque, 273-27), 10 mM ethylenediaminetetraacetic acid disodium salt and 0.1% Triton X-100. A supernatant obtained by centrifuging the suspension after freezing and thawing was used as a protein fraction. The content of protein in the protein fraction was determined using Micro BCA Protein Assay Reagent (a product of Pierce sold by Takara Shuzo, P7411). […]
# [2] = system: cyclooxygenase 2 mRNA; assay: LPS-induced cyclooxygenase 2 mRNA synthesis in RAW264.7 cells (RT-PCR); assay type: cell-based; conditions: 50 μl of 10 mM solution per 5 ml, added 0 or 6 hours before LPS
# Procedure: (2) RAW264.7 cells (ATCC TIB 71) were suspended in Dulbecco's modified Eagle's medium (Bio Whittaker, 12-604F) containing 10% fetal calf serum (Gibco) at a concentration of 3×10^5 cells/ml. 5 ml of the suspension was added to each well of a 6-well microtiter plate and the plate was incubated at 37° C. overnight in the presence of 5% CO2. 50 μl of a solution containing agarobiose or agarohexaose at a concentration of 10 mM in water was added to the well. The plate was incubated for 0 or 6 hours. 50 μl of a solution containing lipopolysaccharide (LPS, Sigma, L-2012) at a concentration of 100 μg/ml in water was added to the well. The plate was incubated for additional 5 hours. The culture supernatant was removed, and 1 ml of a solution of Catrimox-14 (a product of Iowa Biotechnology sold by Takara Shuzo, WA002) was added to the well. After pipetting, the solution was collected. An RNA was prepared according to the attached protocol. The RNA prepared as described above was subjected to RT-PCR using RNA-PCR Kit (AMV) Ver. 2.1 (Takara Shuzo, R019A). A reverse transcription reaction was conducted using a random primer (N6) (Takara Shuzo, 3801) at 30° C. for 10 minutes, at 42° C. for 30 minutes and 99° C. for 5 minutes. […]
smiles,measurement,setting,value
"OC[C@H]1O[C@@H](O[C@H]2[C@H]3OC[C@@H]2OC(O)[C@H]3O)[C@H](O)[C@@H](O)[C@H]1O (mixture of isomers) [Agarobiose, agarobiose]",increase in cyclooxygenase 2 protein expression induced by LPS,[1],not suppressed
same,increase in the cyclooxygenase 2 mRNA synthesis induced by LPS,[2],not suppressed
"OCC1OC(OC2C3COC2C(O)C(OC2C(O)C(CO)OC(OC4C5COC4C(O)C(OC4C(O)C(CO)OC(OC6C7COC6C(O)C(O)O7)C4O)O5)C2O)O3)C(O)C(O)C1O (stereo not shown) [Agarohexaose, agarohexaose]",increase in cyclooxygenase 2 protein expression induced by LPS,[1],not suppressed
same,increase in the cyclooxygenase 2 mRNA synthesis induced by LPS,[2],not suppressed
